Key:
Type in all cases: cell-based
[1] = system: chicken muscle stem cell; test: muscle cell differentiation (microscope, creatine kinase activity); settings: 4 days
Method: (§1) Mouse myoblast cell line (C2C12) used was purchased from American Type Culture Collection (ATCC). Muscle stem cells were collected from leg muscles of cows, pigs, and chickens, minced, and reacted with 1% Pronase enzyme at 37°C for 2 hours, followed by centrifugation at 1,000 g for 3 minutes. After centrifugation, the supernatant was removed, and the tissue was suspended in Dulbecco's Modified Eagle's Medium (DMEM) supplemented with 1% penicillin/streptomycin (hereinafter referred to as P/S) and 10% fetal bovine serum (hereinafter referred to as FBS), and then the tissue and cells were separated through a 100 µm filter. The separated cells were centrifuged at 1,000 g for 5 minutes, the supernatant was removed, and the cells were suspended in Ham's F10 growth medium containing 1% P/S, 20% FBS, and 5 ng/mL fibroblast growth factor 2 (FGF2), after which cells were transferred to a cell culture dish and cultured at 37°C in the presence of 5% CO2.
(§2) To determine the effect of quercetin on muscle stem cell differentiation, myoblasts and muscle stem cells being differentiated were treated with different concentrations of quercetin in differentiation medium ([…]) and cultured for 4 days. To compare differentiation rates, creatine kinase activity was analyzed. Myoblasts and muscle stem cells were cultured in differentiation medium for 4 days, then all media were removed, followed by washing with phosphate buffer saline (PBS), 200 µL of new saline was added, and the cells were scraped and collected. Afterwards, the cells were disrupted through sonication, and the supernatant was separated through centrifugation. For analysis of creatine kinase activity, a mixture (100 µL of buffer, 10 µL of substrate, and 1 µL of enzyme) was prepared, and 100 µL of the mixture was treated to 10 µL of the supernatant. Afterwards, the absorbance at 340 nm was measured at 20 and 25 minutes after the start of the reaction using a microplate reader, and the value of creatine kinase activity (U/L) was calculated using the following Equation 1. [formula]
(§3) According to the Experimental Example 2, in order to identify the effect of quercetin on muscle cell differentiation, quercetin was added at various concentrations during differentiation culture of myoblasts and muscle stem cells, and after culturing for 4 days, observation was made under a microscope, followed by analysis of creatine kinase activity to compare the differentiation rate.

[2] = system: bovine muscle stem cell; test: as above; settings: 4 days
Method: as §1, §2, §3

[3] = system: porcine muscle stem cell; test: as above; settings: 4 days
Method: as §1, §2, §3

[4] = system: chicken muscle stem cell; test: muscle cell proliferation (microscope, MTS analysis); settings: various concentrations, cultured for 4 days, FIGS. 3 and 4
Method: as §1
(§4) To identify the effect of quercetin on muscle stem cell proliferation, myoblasts and muscle stem cells being cultured in proliferation medium (Ham's F10 containing 1% P/S, 20% FBS, and 5 ng/mL FGF2) were treated with various concentrations of quercetin and cultured for 4 days. To compare proliferation rates, MTS analysis was performed. Myoblasts and muscle stem cells were cultured in a proliferation medium for 4 days, and after removing all of the medium, a culture medium in which proliferation medium and MTS reagent are mixed in a ratio of 8:2 was treated to the cells, followed by a reaction for 1 hour. The reacted culture medium was transferred to a 96-well microplate in a volume of 100 µL, and the absorbance of the culture medium contained in each well was measured at 490 nm using a microplate.
(§5) According to the Experimental Example 2, in order to identify the effect of quercetin on muscle cell proliferation, quercetin was added at various concentrations during the proliferation culture of myoblasts and muscle stem cells, and after culturing for 4 days, observation was made under a microscope, followed by MTS analysis for comparison of the proliferation rate.

[5] = system: bovine muscle stem cell; test: as above; settings: various concentrations, cultured for 4 days, FIGS. 3 and 4
Method: as §1, §4, §5

[6] = system: porcine muscle stem cell; test: as above; settings: various concentrations, cultured for 4 days, FIGS. 3 and 4
Method: as §1, §4, §5

[7] = system: Mouse myoblast cell line (C2C12); test: as above; settings: various concentrations, cultured for 4 days, FIGS. 3 and 4
Method: as §1, §4, §5

[8] = system: muscle differentiation-related factors (MYOD, MYOG, and MYH); test: gene and protein expression of muscle differentiation-related factors (real-time PCR, Western blot); settings: 10 nM quercetin, FIG. 7
Method: 1 mL of TRIzol (TRIzol™) reagent was added to the cultured cells, and the cells were crushed. 200 µLof chloroform was added to the crushed cells, and centrifugation was performed at 12,000 rpm for 10 minutes. After centrifugation, the upper clear water layer was transferred to a new tube, followed by addition of 500 µLof isopropanol. Afterwards, the mixture was mixed sufficiently and centrifuged at 12,000 rpm for 10 minutes. Thereafter, all supernatants except the RNA pellet were removed, and 1 mL of 70% ethanol was added, followed by washing. Afterwards, all ethanol was removed, and the RNA pellet was dissolved in distilled water containing diethylpyrocarbonate (hereinafter referred to as DEPC). The obtained RNA was quantified using a spectrophotometer, and then 2 µg of total RNA was reacted with reverse transcriptase to synthesize cDNA.
To identify an effect of quercetin on gene expression of muscle differentiation-related factors [myoblast determination protein 1 (hereinafter referred to as MYOD), myogenin (hereinafter referred to as MYOG), and myosin heavy chain (hereinafter referred to as MYH)], real-time PCR was performed. Synthesized cDNA and primers designed using NCBI's primer blast tool; and reagents containing SYBR green fluorescent substance were mixed. Real-time PCR was analyzed via the 7500 real-time PCR from Applied Biosystems.
To determine the effect of quercetin on the protein expression of muscle differentiation-related factors (MYOD, MYOG, and MYH), Western blot was performed. All media of cells being cultured were removed and washed with saline solution. A mixture containing RIPA buffer and 1% protease inhibitor was added to the cells and scraped. After centrifugation at 12,000 rpm for 10 minutes, the supernatant was recovered and quantified using a spectrophotometer. 60 µg of the extracted protein was electrophoresed on a 10% acrylamide gel and transferred to a polyvinylidene fluoride (PVDF) membrane (Milipore). Blocking was performed for 1 hour in tris-buffered saline (TBS) buffer containing 3% skim milk and 1% surfactant (tween-20), and the primary antibody was added. After reacting for 16 hours at 4°C, washing was performed three times for 10 minutes in TBS buffer containing 1% surfactant (Tween-20), followed by a reaction with the secondary antibody for 1 hour at room temperature. Afterwards, washing was performed three times for 10 minutes in TBS buffer containing 1% surfactant (tween-20), followed by development after adding Super Signal West Pico Chemiluminescent Substrate.
According to the above Experimental Example 4, to identify the effect of quercetin on the expression of factors related to muscle differentiation, 10 nM quercetin was added to the process of differentiating myoblasts and muscle stem cells, and gene and protein expression of the factors was analyzed.

[9] = system: Mouse myoblast cell line (C2C12); test: muscle cell differentiation (microscope, creatine kinase activity)
Method: To determine the effect of quercetin on muscle stem cell differentiation, myoblasts and muscle stem cells being differentiated were treated with different concentrations of quercetin in differentiation medium (Ham's F10 containing 1% P/S, 20% FBS, and 5 ng/mL FGF2) and cultured for 4 days. To compare differentiation rates, creatine kinase activity was analyzed. Myoblasts and muscle stem cells were cultured in differentiation medium for 4 days, then all media were removed, followed by washing with phosphate buffer saline (PBS), 200 µL of new saline was added, and the cells were scraped and collected. Afterwards, the cells were disrupted through sonication, and the supernatant was separated through centrifugation. For analysis of creatine kinase activity, a mixture (100 µL of buffer, 10 µL of substrate, and 1 µL of enzyme) was prepared, and 100 µL of the mixture was treated to 10 µL of the supernatant. Afterwards, the absorbance at 340 nm was measured at 20 and 25 minutes after the start of the reaction using a microplate reader, and the value of creatine kinase activity (U/L) was calculated using the following Equation 1. [formula] […]

[10] = 10 nM and 100 nM treatment groups, FIG. 5

With `O=c1c(O)c(-c2ccc(O)c(O)c2)oc2cc(O)cc(O)c12` [quercetin] the diameter of myotubes [1, 10] was “increased”, the creatine kinase activity ([1]; 10 nM and 100 nM, FIG. 6) was “significantly increased” and the diameter of myotubes [2, 10] was “increased”. The creatine kinase activity ([2]; 10 nM and 100 nM, FIG. 6) was “significantly increased”, the diameter of myotubes [3, 10] was “increased” and the creatine kinase activity ([3]; 10 nM and 100 nM, FIG. 6) was “significantly increased”. The proliferation rate [4] was “no significant change”, the proliferation rate [5] was “no significant change” and the proliferation rate [6] was “no significant change”. The proliferation rate [7] was “no significant change”, the MYH expression ([8]; bovine muscle stem cells) was “significantly increased” and the MYOD expression ([8]; bovine muscle stem cells) was “significantly increased”. The MYOG expression ([8]; bovine muscle stem cells) was “significantly increased”, the MYH expression ([8]; chicken muscle stem cells) was “significantly increased” and the MYOG expression ([8]; chicken muscle stem cells) was “significantly increased”. For the same compound, the MYH expression ([8]; mouse myoblasts) was “significantly increased”, the MYOD expression ([8]; mouse myoblasts) was “significantly increased” and the MYOG expression ([8]; mouse myoblasts) was “significantly increased”. The MYH expression ([8]; porcine muscle stem cells) was “significantly increased”, the MYOD expression ([8]; porcine muscle stem cells) was “significantly increased” and the MYOG expression ([8]; porcine muscle stem cells) was “significantly increased”. The diameter of myotubes ([9]; mouse myoblast, 10 nM and 100 nM treatment groups, 4 days, FIG. 5) was “increased”, the creatine kinase activity ([9]; mouse myoblast, 10 nM and 100 nM, 4 days, FIG. 6) was “significantly increased” and the “creatine kinase activity increase compared to the control group (Con)” value ([9]; mouse myoblasts, differentiation medium, quercetin 10 nM, antioxidant supplement diluted 1,000-fold, FIG. 8B) was 17%.
